According to publication PMC9995496, “A screen for MeCP2-TBL1 interaction inhibitors using a luminescence-based assay” (Scientific Reports, 2023):
One block for each compound: values may come before it.

Target: T1, MeCP2-TBL1 interaction (MeCP2-SmBiT / TBL1-LgBiT) (Mus musculus, UniProt Q9QXE7)
T1 construct: expressed in transfected cells; crude lysate used as a cell-free assay
T1 sequence (Q9QXE7 166-527): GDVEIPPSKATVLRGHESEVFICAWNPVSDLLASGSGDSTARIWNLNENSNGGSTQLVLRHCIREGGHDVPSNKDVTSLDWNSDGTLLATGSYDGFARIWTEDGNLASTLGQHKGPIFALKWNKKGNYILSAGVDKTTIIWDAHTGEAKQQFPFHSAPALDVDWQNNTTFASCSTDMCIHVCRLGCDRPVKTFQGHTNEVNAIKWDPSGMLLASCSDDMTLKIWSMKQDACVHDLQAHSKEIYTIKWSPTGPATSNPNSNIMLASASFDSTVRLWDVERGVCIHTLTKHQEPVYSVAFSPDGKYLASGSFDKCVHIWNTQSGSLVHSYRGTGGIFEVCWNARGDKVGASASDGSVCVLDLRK
Test: MeCP2-TBL1 NanoLuc luciferase complementation assay (cell-free, extracts of transfected HEK293 cells)
Assay type: binding, human
Conditions: for inhibition in MeCP2-TBL1 assay compared with control PKA-based assay, individual validation: n = 7, t-test; for separation between MeCP2-TBL1 inhibition and inhibition of the PKA control in dose response: PKA-based assay run in parallel; for inhibition at 20 µM: ApexBio library screen, threshold SSMD* ≥ 3, read-out: inhibition in MeCP2-TBL1 assay after adjusting for activity in the PRKACA-PRKAR2A assay; for IC50: dose response 0.3–60 μM, triplicate, 30 min, luminescence normalized to DMSO, read-out: IC50, inhibition of MeCP2-TBL1 luminescence signal
Procedure, shortened: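 Cell-free split NanoLuc: lysate of HEK293 cells co-expressing the MeCP2 C-terminal half-SmBiT and TBL1 WD domain-LgBiT, mixed 1:1 with furimazine. After 30 min at room temperature, luminescence was plate-median normalized.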

[1] = primary screen of the Asinex library, sheet "Sargen output Asinex library", one well per compound, Batch Ref. 1
[2] = primary screen of Asinex library, single well per compound
[3] = primary screen of the Asinex library, sheet "Sargen output Asinex library", one well per compound

Inhibition percent [1]: -1.81%
SMILES: C[C@]12C[C@@H](Cc3ccccc3)N(C(=O)c3ccc(OCCN4CCCC4)cc3)[C@H]1CCCC(=O)N2 [BDH_33629575]

Inhibition percent [1]: -0.000826%
SMILES: C[C@]12C[C@@H](Cc3ccccc3)N(C(=O)C3CCN(Cc4cccnc4)CC3)[C@H]1CCCC(=O)N2 [BDH_33630330]

Inhibition percent [1]: -0.42%
SMILES: CC(=O)N1CCCCC[C@@H]2[C@@H]1C[C@@H](Cc1ccccc1)N2C(=O)c1cccc(Cn2cncn2)c1 [BDH_33630828]

Inhibition percent [3]: 1.15%
SMILES: CC(C)c1nccn1CCC(=O)N1[C@H](Cc2ccccc2)C[C@]2(C)NC(=O)CCC[C@H]12 [BDH_33632337]

Inhibition percent [1]: 0.0118%
SMILES: CC(C)(O)[C@@H]1CC[C@](C)([C@H]2CC3(CCN(C(=O)c4ccc(-c5ccc(S(C)(=O)=O)cc5)cc4)CC3)CO2)O1 [BDH_33696510]

Inhibition percent [1]: -0.89%
SMILES: COc1cccc(CN2CCC3(C/C=C/COc4ccccc4C(=O)NCCNC3=O)CC2)c1F [BDH_33701964]

Inhibition percent [1]: 4.94%
SMILES: O=C1NCCNC(=O)C2(C/C=C/COc3ccccc31)CCN(C(=O)CCc1cccs1)CC2 [BDH_33701979]

Inhibition percent [2]: -1.79
SMILES: O=C1CNC(=O)C2(C/C=C/C[C@H]3COCC[C@H]3N1)CCN(c1ncccn1)CC2 [BDH_33727647]

Inhibition percent [3]: -2.28%
SMILES: O=C1CNC(=O)C2(C/C=C/C[C@H]3COCC[C@H]3N1)CCN(C(=O)/C=C/c1ccccc1)CC2 [BDH_33728358]

Inhibition percent [3]: -3.47%
SMILES: O=C1CNC(=O)C2(C/C=C/C[C@H]3COCC[C@@H]3N1)CCN(C(=O)COc1ccccc1)CC2 [BDH_33728395]

Inhibition percent [1]: -0.08%
SMILES: Cc1nc(C(=O)N2CCCC3(C/C=C/COc4ccccc4C(=O)NCCNC3=O)C2)co1 (centres unmarked) [BDH_33731677]

Inhibition percent [3]: -2.58%
SMILES: CC(=O)N1CCC2(C/C=C/C[C@H]3CN(C(=O)Cc4cccc(F)c4)CC[C@H]3NC(=O)CNC2=O)CC1 [BDH_33732909]

Inhibition percent [2]: -1.51
SMILES: Cc1nn(C)cc1CCC(=O)N1CCC[C@@H]2NC(=O)c3ccccc3OCCCCC[C@@H]21 [BDH_33734258]

Inhibition percent [3]: 0.76%
SMILES: O=C1COc2ccccc2CCCC[C@@H]2CN(C(=O)CCCn3cccn3)CC[C@H]2N1 [BDH_33762630]

Inhibition percent [1]: 1.29%
SMILES: Cc1cnn(CC(=O)N2CCC3(C/C=C/CCOc4ccccc4C(=O)NCCCNC3=O)CC2)c1 [BDH_33775476]

Inhibition percent [3]: 4.22%
SMILES: CC(C)=CCC[C@]1(C)Oc2cc(OCC(=O)O)ccc2[C@H]2OCC3(CCN(C(=O)OC(C)(C)C)CC3)C[C@@H]21 [BDH_33958802]

Inhibition percent [1]: 9.13%
SMILES: CCCCC[C@]1(O)CCN(S(=O)(=O)c2ccccc2)C[C@@H]1Oc1cccc(F)c1 [BDH_34032183]

Inhibition percent [1]: 1.76%
SMILES: CC(C)C[C@H]1CN(C(=O)CCn2c(=O)oc3cc(Cl)ccc32)CC[C@H]1Nc1cccc(F)c1 [BDH_34035644]

Inhibition percent [2]: -0.66
SMILES: COc1cccc(C2CN(Cc3ccccc3)C(=O)C23CCN(Cc2cccc(C(=O)O)c2)CC3)c1 (centres unmarked) [BDH_34129947]

Inhibition percent [2]: 0.45
SMILES: COc1cccc(C2CN(Cc3ccccc3)C(=O)C23CCN(Cc2ccc(C(=O)O)cc2)CC3)c1 (centres unmarked) [BDH_34130105]

Inhibition percent [2]: 5.00
SMILES: COc1cccc(C2CN(Cc3ccccc3)C(=O)C23CCN(Cc2ccccc2C(=O)O)CC3)c1 (centres unmarked) [BDH_34130263]

Inhibition percent [3]: 0.18%
SMILES: CC(=O)N1CCC(C(=O)N[C@@H]2C[C@@H](Oc3cccc(F)c3)[C@H](O)[C@H]2N(C)Cc2ccccc2)CC1 [BDI_34055064]

The next lines start with the compound.

SMILES: O=C(NCCC1CCCCN1C(=O)CCN1C(=O)COc2ccc(Cl)cc21)c1ccccc1 (centres unmarked) [BDH_33629495]
Inhibition percent [1]: -0.39%

SMILES: C[C@]12C[C@@H](Cc3ccccc3)N(C(=O)c3ccc(NCc4cccnc4)cc3)[C@H]1CCCC(=O)N2 [BDH_33630910]
Inhibition percent [1]: 7.42%

SMILES: Cc1cc2ncn(CCC(=O)N3[C@H](Cc4ccccc4)C[C@]4(C)NC(=O)CCC[C@H]34)c2cc1C [BDH_33631266]
Inhibition percent [1]: -1.89%

SMILES: C[C@]12C[C@@H](c3cccc(C(F)(F)F)c3)N(C(=O)CCc3nc4ccccc4[nH]3)[C@H]1CCCCC(=O)N2 [BDH_33631539]
Inhibition percent [2]: -2.28

SMILES: O=C(NCCC1CCCCN1C(=O)CCn1cnc2ccccc21)c1ccccc1 (centres unmarked) [BDH_33631954]
Inhibition percent [1]: -1.65%

SMILES: COc1cc2c(cc1[C@H]1C[C@@H](NC(C)=O)CC3(CCCCC3)O1)OCCCO2 [BDH_33665894]
Inhibition percent [1]: 2.60%

SMILES: COc1cccc([C@H]2C[C@@](C)(NC(=O)C(C)C)[C@@H]3CC[C@@H](C)C[C@H]3O2)c1OCCN(C)C [BDH_33687810]
Inhibition percent [3]: -1.87%

SMILES: Cc1ncc(C(=O)N2CCC[C@@H]3[C@H]2C/C=C/Cc2ccccc2OCC(=O)N3C)c(C)n1 [BDH_33728424]
Inhibition percent [3]: -2.62%

SMILES: CC(C)C[C@H](NC(=O)OCc1ccccc1)C(=O)N1CCC2(CC1)CO[C@@H]([C@@]1(C)CC[C@H](O)C(C)(C)O1)C2 [BDH_33767587]
Inhibition percent [3]: -2.43%

SMILES: Cn1nccc1CN[C@@H]1C[C@@H](Oc2ccccc2)[C@H](O)[C@H]1N1CCN(c2ccccc2)CC1 [BDH_33787192]
Inhibition percent [2]: -0.36

SMILES: C[C@@]12C[C@H](c3ccccc3)N(C(=O)CCc3c[nH]c4ccccc34)[C@@H]1CCC[C@@H](O)[C@H]2O [BDH_33903568]
Inhibition percent [1]: 3.00%

SMILES: CC(C)(C)OC(=O)N1[C@@H](CNC(=O)CCc2c[nH]c3ccccc23)C[C@@]2(C)[C@@H](O)CCCC[C@@H]12 [BDH_33903570]
Inhibition percent [1]: 3.52%

SMILES: CN(C)c1ccccc1C(=O)N(C)[C@H]1CC[C@@]2(CCO)C[C@H](c3ccccc3)C[C@](C)(O2)[C@@H]1O [BDH_33903744]
Inhibition percent [2]: 1.99

SMILES: C[C@@]12C[C@H](c3ccccc3)N(C(=O)CCCn3cccn3)[C@@H]1CCC[C@@H](O)[C@@H]2O [BDH_33903800]
Inhibition percent [2]: 0.83

SMILES: CC(C)(C)OC(=O)NCCC(=O)N(Cc1ccccc1)C[C@@H]1C[C@@H](n2ccc(=O)[nH]c2=O)[C@@H](O)[C@@H]1O [BDH_33952010]
Inhibition percent [3]: -1.46%

SMILES: CC(C)=CCC[C@]1(C)Oc2c(OCCOCCO)cccc2[C@H]2O[C@H]3CCN(C(=O)OC(C)(C)C)C[C@@H]3C[C@@H]21 [BDH_33957239]
Inhibition percent [1]: 4.83%

SMILES: CC(C)=CCC[C@]1(C)Oc2cc(OCC(N)=O)ccc2[C@H]2OC[C@@]3(CCCN(C(=O)OC(C)(C)C)C3)C[C@@H]21 [BDH_33958782]
Inhibition percent [1]: 7.79%

SMILES: CC(C)(C)OC(=O)N(Cc1ccccc1)C[C@@H]1C[C@H](O)[C@H](O)[C@H]1n1cnc2c(N)ncnc21 [BDH_34018090]
Inhibition percent [3]: -1.62%

SMILES: O=C(NCCc1ccccc1)[C@@H]1[C@H](O)[C@@H](c2ccc(F)cc2)CN1C(=O)Cc1c[nH]c2ccccc12 [BDH_34023215]
Inhibition percent [2]: 2.61

SMILES: COCCC(=O)N[C@@]1(C)C[C@@H](c2ccc(F)cc2)O[C@@H](c2ccc(N3CCCC3=O)cc2)C1 [BDH_34036118]
Inhibition percent [2]: 3.23

SMILES: COCCC(=O)N[C@]1(C)C[C@@H](c2ccc(Cl)cc2)O[C@@H](c2cc(Br)ccc2O)C1 [BDH_34036884]
Inhibition percent [2]: 5.22

SMILES: CN(C)CCOc1ccc(C(=O)N(C)CC2(O)CCCN(c3ccnc4ccncc34)C2)cc1 (centres unmarked) [BDH_34040371]
Inhibition percent [2]: -4.15

SMILES: CCc1nnsc1C(=O)NC[C@]1(c2ccccc2)CC[C@@H](O)[C@H](N2CCOCC2)CC1 [BDH_34124703]
Inhibition percent [3]: 0.50%

SMILES: CC1(C)Oc2ccccc2[C@@H]2O[C@@H]3CCN(C(=O)c4cccc(Cn5ccnc5)c4)C[C@]3(CO)C[C@H]21 [BDH_34133896]
Inhibition percent [1]: 6.91%

SMILES: COc1ccc(CN(C)[C@@H]2[C@@H](O)[C@H](Oc3cccc(F)c3)C[C@H]2NC(=O)CCC(N)=O)cc1 [BDI_34058033]
Inhibition percent [1]: -0.09%

SMILES: CN(Cc1ccccc1)[C@@H]1[C@@H](O)[C@H](Oc2cccc(C(F)(F)F)c2)C[C@H]1NC(=O)c1cocn1 [BDI_34061115]
Inhibition percent [1]: 4.93%

SMILES: CN(C)Cc1cccc(N/C(=C2\C(=O)Nc3cc(C(=O)N(C)C)ccc32)c2ccccc2)c1 [BIX02189, reference compound]
inhibition in MeCP2-TBL1 assay compared with control PKA-based assay, individual validation (20 µM): did not have a statistically different effect
separation between MeCP2-TBL1 inhibition and inhibition of the PKA control in dose response (0.3–60 μM): only modest selectivity
inhibition at 20 µM (20 µM): ≥ 35%
IC50: 28 µM

SMILES: O=C1C(Cl)=C(N2CCOCC2)C(=O)N1c1ccc(Cl)c(Cl)c1 [RI-1, reference compound]
Inh (MeCP2-TBL1) (ApexBio FDA-approved Drug Library screen, 20 µM): 13.6055

SMILES: CCNC(=O)c1noc(-c2cc(C(C)C)c(O)cc2O)c1-c1ccc(CN2CCOCC2)cc1 [luminespib, reference compound]
inhibition in MeCP2-TBL1 assay compared with control PKA-based assay, individual validation (20 µM): statistically significantly greater
extent of MeCP2-TBL1 inhibition reached within the tested concentration range (0.3–60 μM): without being able to completely inhibit MeCP2-TBL1 binding
separation between MeCP2-TBL1 inhibition and inhibition of the PKA control in dose response (0.3–60 μM): clear separation
inhibition at 20 µM (20 µM): ≥ 35%
IC50: 31 µM

SMILES: C=C1C(=O)[C@]23[C@H](O)[C@H]1CC[C@H]2[C@@]12CO[C@]3(O)[C@@H](O)[C@@H]1C(C)(C)CC[C@@H]2O [oridonin, reference compound]
inhibition in MeCP2-TBL1 assay compared with control PKA-based assay, individual validation (20 µM): statistically significantly greater
separation between MeCP2-TBL1 inhibition and inhibition of the PKA control in dose response (0.3–60 μM): only modest selectivity
inhibition at 20 µM (20 µM): ≥ 35%
IC50: 34 µM
